Assay results reported in ChEMBL document CHEMBL1201861, “Genomics of Drug Sensitity in Cancer screening data, Wellcome Trust Sanger Institute”.
pIC50: −log10 of the molar value.

Columns and labels:
Test in all cases: cells
CPC-N = type: functional, cell-based, Homo sapiens; conditions: Homo sapiens, CPC-N;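 also: growth inhibition of CPC-N cells, with a cell viability assay as the readout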
Description: SANGER: Inhibition of human CPC-N cell growth in a cell viability assay.

Calu-3 = type: functional, cell-based, Homo sapiens; conditions: Homo sapiens, Calu-3;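 also: growth inhibition of human Calu-3 cells, determined with a cell viability assay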
Description: SANGER: Inhibition of human Calu-3 cell growth in a cell viability assay.

D-542MG = type: functional, cell-based, Homo sapiens; conditions: Homo sapiens, D-542MG
Description: SANGER: Inhibition of human D-542MG cell growth in a cell viability assay.

DBTRG-05MG = type: functional, cell-based, Homo sapiens; conditions: Homo sapiens, DBTRG-05MG;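 also: cell viability assay measuring growth inhibition of human DBTRG-05MG cells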
Description: SANGER: Inhibition of human DBTRG-05MG cell growth in a cell viability assay.

DMS-273 = type: functional, cell-based, Homo sapiens; conditions: Homo sapiens, DMS-273
Description: SANGER: Inhibition of human DMS-273 cell growth in a cell viability assay.

Detroit 562 = type: functional, cell-based, Homo sapiens; conditions: Homo sapiens, Detroit 562;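 also: growth inhibition of human Detroit 562 cells, read out by a cell viability assay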
Description: SANGER: Inhibition of human Detroit562 cell growth in a cell viability assay.

HCC1569 = type: functional, cell-based, Homo sapiens; conditions: Homo sapiens, HCC1569;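 also: growth inhibition of human HCC1569 cells, read out with a cell viability assay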
Description: SANGER: Inhibition of human HCC1569 cell growth in a cell viability assay.

HCE-4 = type: functional, cell-based, Homo sapiens; conditions: Homo sapiens, HCE-4;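 also: cell viability assay measuring inhibition of growth in the human HCE-4 cell line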
Description: SANGER: Inhibition of human HCE-4 cell growth in a cell viability assay.

HOS = type: functional, cell-based, Homo sapiens; conditions: Homo sapiens, HOS;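 also: growth inhibition of human HOS cells, read out with a cell viability assay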
Description: SANGER: Inhibition of human HOS cell growth in a cell viability assay.

HSC-2 = type: functional, cell-based, Homo sapiens; conditions: Homo sapiens, HSC-2;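 also: growth inhibition of human HSC-2 cells, read out by a cell viability assay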
Description: SANGER: Inhibition of human HSC-2 cell growth in a cell viability assay.

HT-1376 = type: functional, cell-based, Homo sapiens; conditions: Homo sapiens, HT-1376
Description: SANGER: Inhibition of human HT-1376 cell growth in a cell viability assay.

HT-3 = type: functional, cell-based, Homo sapiens; conditions: Homo sapiens, HT-3;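 also: growth inhibition measured with a cell viability readout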
Description: SANGER: Inhibition of human HT-3 cell growth in a cell viability assay.

KOSC-2 = type: functional, cell-based, Homo sapiens; conditions: Homo sapiens, KOSC-2;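 also: growth inhibition of KOSC-2 cells, read out by a cell viability assay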
Description: SANGER: Inhibition of human KOSC-2 cell growth in a cell viability assay.

KU812 cell line = type: functional, cell-based, Homo sapiens; conditions: Homo sapiens, KU812;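 also: growth inhibition of KU812 cells, read out with a cell viability assay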
Description: SANGER: Inhibition of human KU812 cell growth in a cell viability assay.

LB996-RCC = type: functional, cell-based, Homo sapiens; conditions: Homo sapiens, LB996-RCC
Description: SANGER: Inhibition of human LB996-RCC cell growth in a cell viability assay.

LNCaP-Clone-FGC = type: functional, cell-based, Homo sapiens; conditions: Homo sapiens, LNCaP-Clone-FGC
Description: SANGER: Inhibition of human LNCaP-Clone-FGC cell growth in a cell viability assay.

LS-411N = type: functional, cell-based, Homo sapiens; conditions: Homo sapiens, LS-411N
LXF-289 cell line = type: functional, cell-based, Homo sapiens; conditions: Homo sapiens, LXF-289
Description: SANGER: Inhibition of human LXF-289 cell growth in a cell viability assay.

MC116 = type: functional, cell-based, Homo sapiens; conditions: Homo sapiens, MC116;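 also: growth inhibition of MC116 cells, read out with a cell viability assay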
Description: SANGER: Inhibition of human MC116 cell growth in a cell viability assay.

ME-180 = type: functional, cell-based, Homo sapiens; conditions: Homo sapiens, ME-180;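 also: cell viability assay measuring growth inhibition of ME-180 cells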
Description: SANGER: Inhibition of human ME-180 cell growth in a cell viability assay.

MHH-ES-1 = type: functional, cell-based, Homo sapiens; conditions: Homo sapiens, MHH-ES-1;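 also: cell growth inhibition measured by a cell viability assay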
Description: SANGER: Inhibition of human MHH-ES-1 cell growth in a cell viability assay.

MPP-89 = type: functional, cell-based, Homo sapiens; conditions: Homo sapiens, MPP-89;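 also: growth inhibition of human MPP-89 cells, read out with a cell viability assay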
Description: SANGER: Inhibition of human MPP-89 cell growth in a cell viability assay.

MRK-nu-1 = type: functional, cell-based, Homo sapiens; conditions: Homo sapiens, MRK-nu-1;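 also: cell viability assay measuring growth suppression of human MRK-nu-1 cells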
Description: SANGER: Inhibition of human MRK-nu-1 cell growth in a cell viability assay.

MSTO-211H = type: functional, cell-based, Homo sapiens; conditions: Homo sapiens, MSTO-211H
Description: SANGER: Inhibition of human MSTO-211H cell growth in a cell viability assay.

MZ2-MEL = type: functional, cell-based, Homo sapiens; conditions: Homo sapiens, MZ2-MEL;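 also: growth inhibition of MZ2-MEL cells read out with a cell viability assay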
Description: SANGER: Inhibition of human MZ2-MEL cell growth in a cell viability assay.

NCI-H1581 = type: functional, cell-based, Homo sapiens; conditions: Homo sapiens, NCI-H1581;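 also: cell growth inhibition read out by a viability assay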
Description: SANGER: Inhibition of human NCI-H1581 cell growth in a cell viability assay.

NCI-H2087 = type: functional, cell-based, Homo sapiens; conditions: Homo sapiens, NCI-H2087;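 also: growth inhibition determined with a cell viability readout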
Description: SANGER: Inhibition of human NCI-H2087 cell growth in a cell viability assay.

NCI-H226 = type: functional, cell-based, Homo sapiens; conditions: Homo sapiens, NCI-H226;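 also: cell viability read-out used to gauge growth inhibition of the cells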
Description: SANGER: Inhibition of human NCI-H226 cell growth in a cell viability assay.

NCI-H2342 = type: functional, cell-based, Homo sapiens; conditions: Homo sapiens, NCI-H2342;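 also: growth inhibition of the cancer cell line, determined with a cell viability assay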
Description: SANGER: Inhibition of human NCI-H2342 cell growth in a cell viability assay.

NCI-H716 = type: functional, cell-based, Homo sapiens; conditions: Homo sapiens, NCI-H716;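 also: growth inhibition of human NCI-H716 cells, measured by a cell viability assay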
Description: SANGER: Inhibition of human NCI-H716 cell growth in a cell viability assay.

NCI-H720 = type: functional, cell-based, Homo sapiens; conditions: Homo sapiens, NCI-H720;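 also: growth inhibition of human NCI-H720 cells determined by a cell viability assay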
Description: SANGER: Inhibition of human NCI-H720 cell growth in a cell viability assay.

OE19 = type: functional, cell-based, Homo sapiens; conditions: Homo sapiens, OE19;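 also: growth inhibition of OE19 cells, measured through a cell viability read-out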
Description: SANGER: Inhibition of human OE19 cell growth in a cell viability assay.

OS-RC-2 = type: functional, cell-based, Homo sapiens; conditions: Homo sapiens, OS-RC-2;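 also: growth inhibition of human OS-RC-2 cells, measured by a cell viability assay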
Description: SANGER: Inhibition of human OS-RC-2 cell growth in a cell viability assay.

OVCAR-8 = type: functional, cell-based, Homo sapiens; conditions: Homo sapiens, OVCAR-8;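 also: growth inhibition of human OVCAR-8 cells, read out by a cell viability assay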
Description: SANGER: Inhibition of human OVCAR-8 cell growth in a cell viability assay.

PANC-03-27 = type: functional, cell-based, Homo sapiens; conditions: Homo sapiens, PANC-03-27
Description: SANGER: Inhibition of human PANC-03-27 cell growth in a cell viability assay.

SJRH30 = type: functional, cell-based, Homo sapiens; conditions: Homo sapiens, SJRH30;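 also: growth inhibition of human SJRH30 cells, read out with a cell viability assay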
Description: SANGER: Inhibition of human SJRH30 cell growth in a cell viability assay.

SK-MEL-24 = type: functional, cell-based, Homo sapiens; conditions: Homo sapiens, SK-MEL-24;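 also: growth inhibition read out by a cell viability assay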
Description: SANGER: Inhibition of human SK-MEL-24 cell growth in a cell viability assay.

SK-MEL3 = type: functional, cell-based, Homo sapiens, SK-MEL-3; conditions: Homo sapiens, SK-MEL3;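 also: growth inhibition of human SK-MEL-3 cells, read out with a cell viability assay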
Description: SANGER: Inhibition of human SK-MEL-3 cell growth in a cell viability assay.

SK-N-DZ = type: functional, cell-based, Homo sapiens; conditions: Homo sapiens, SK-N-DZ;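 also: growth inhibition of the cancer cell line, read out through a viability assay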
Description: SANGER: Inhibition of human SK-N-DZ cell growth in a cell viability assay.

CWR22R = type: functional, cell-based, Homo sapiens; conditions: Homo sapiens, 22Rv1;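 also: growth inhibition of 22Rv1 cells, read out with a cell viability assay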
Description: SANGER: Inhibition of human 22RV1 cell growth in a cell viability assay.

639-V = type: functional, cell-based, Homo sapiens; conditions: Homo sapiens, 639-V;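 also: growth inhibition of 639-V cells, read out with a cell viability assay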
Description: SANGER: Inhibition of human 639-V cell growth in a cell viability assay.

A2780 = type: functional, cell-based, Homo sapiens; conditions: Homo sapiens, A2780;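 also: growth inhibition of A2780 cells, read out with a cell viability assay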
Description: SANGER: Inhibition of human A2780 cell growth in a cell viability assay.

A-375 = type: functional, cell-based, Homo sapiens; conditions: Homo sapiens, A-375;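 also: growth inhibition of A375 cells, read out with a cell viability assay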
Description: SANGER: Inhibition of human A375 cell growth in a cell viability assay.

CAL-62 = type: functional, cell-based, Homo sapiens; conditions: Homo sapiens, CAL-62;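 also: growth inhibition of CAL-62 cells, read out with a cell viability assay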
Description: SANGER: Inhibition of human CAL-62 cell growth in a cell viability assay.

THP-1 = type: functional, cell-based, Homo sapiens; conditions: Homo sapiens, THP-1;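 also: growth inhibition of THP-1 cells, read out via a cell viability assay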
Description: SANGER: Inhibition of human THP-1 cell growth in a cell viability assay.

UMUC3 = type: functional, cell-based, Homo sapiens; conditions: Homo sapiens, UMUC3;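 also: growth inhibition of human UM-UC-3 cells, read out with a cell viability assay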
Description: SANGER: Inhibition of human UM-UC-3 cell growth in a cell viability assay.

VMRC-RCZ = type: functional, cell-based, Homo sapiens; conditions: Homo sapiens, VMRC-RCZ;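 also: growth inhibition measured with a cell viability assay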
Description: SANGER: Inhibition of human VMRC-RCZ cell growth in a cell viability assay.

Q: How did the pIC50 (CPC-N) turn out when `O=C(O)c1ccc(-c2c[nH]c3ncc(-c4ccccc4)cc23)cc1C1CCCC1` [GSK-650394] was run?
A: 4.99

Q: And the pIC50 (Calu-3)?
A: 4.97

Q: What about the pIC50 (D-542MG) of the same molecule?
A: < 4.80

Q: And the pIC50 (DBTRG-05MG)?
A: < 4.80

Q: What about the pIC50 (DMS-273) of the same molecule?
A: < 4.80

Q: And the pIC50 (Detroit 562)?
A: 4.89

Q: And the pIC50 (HCC1569)?
A: < 4.80

Q: What about the pIC50 (HCE-4) of the same molecule?
A: 5.12

Q: And the pIC50 (HOS)?
A: 5.70

Q: And the pIC50 (HSC-2)?
A: < 4.80

Q: What about the pIC50 (HT-1376) of the same molecule?
A: < 4.80

Q: What about the pIC50 (HT-3) of the same molecule?
A: < 4.80

Q: And the pIC50 (KOSC-2)?
A: < 4.80

Q: What about the pIC50 (KU812 cell line) of the same molecule?
A: 5.66

Q: What about the pIC50 (LB996-RCC) of the same molecule?
A: < 4.80

Q: What about the pIC50 (LNCaP-Clone-FGC) of the same molecule?
A: < 4.80

Q: What about the pIC50 (LS-411N) of the same molecule?
A: 4.98

Q: And the pIC50 (LXF-289 cell line)?
A: 5.85

Q: And the pIC50 (MC116)?
A: < 4.80

Q: What about the pIC50 (ME-180) of the same molecule?
A: < 4.80

Q: And the pIC50 (MHH-ES-1)?
A: 4.86

Q: What about the pIC50 (MPP-89) of the same molecule?
A: 5.03

Q: What about the pIC50 (MRK-nu-1) of the same molecule?
A: 5.15

Q: What about the pIC50 (MSTO-211H) of the same molecule?
A: < 4.80

Q: And the pIC50 (MZ2-MEL)?
A: 5.18

Q: What about the pIC50 (NCI-H1581) of the same molecule?
A: < 4.80

Q: What about the pIC50 (NCI-H2087) of the same molecule?
A: 4.87

Q: And the pIC50 (NCI-H226)?
A: 4.81

Q: What about the pIC50 (NCI-H2342) of the same molecule?
A: 5.66

Q: What about the pIC50 (NCI-H716) of the same molecule?
A: < 4.80

Q: What about the pIC50 (NCI-H720) of the same molecule?
A: < 4.80

Q: What about the pIC50 (OE19) of the same molecule?
A: < 4.80

Q: What about the pIC50 (OS-RC-2) of the same molecule?
A: < 4.80

Q: What about the pIC50 (OVCAR-8) of the same molecule?
A: 4.95

Q: What about the pIC50 (PANC-03-27) of the same molecule?
A: < 4.80

Q: And the pIC50 (SJRH30)?
A: < 4.80

Q: What about the pIC50 (SK-MEL-24) of the same molecule?
A: < 4.80

Q: What about the pIC50 (SK-MEL3) of the same molecule?
A: < 4.80

Q: What about the pIC50 (SK-N-DZ) of the same molecule?
A: < 4.80

Q: What about the pIC50 (CWR22R) of the same molecule?
A: < 4.80

Q: And the pIC50 (639-V)?
A: 5.29

Q: What about the pIC50 (A2780) of the same molecule?
A: < 4.80

Q: And the pIC50 (A-375)?
A: 5.28

Q: What about the pIC50 (CAL-62) of the same molecule?
A: 5.32

Q: What about the pIC50 (THP-1) of the same molecule?
A: < 4.80

Q: And the pIC50 (UMUC3)?
A: 5.02

Q: And the pIC50 (VMRC-RCZ)?
A: < 4.80

Q: How did the pIC50 (CPC-N) turn out when `Nc1ccn([C@@H]2O[C@H](CO)[C@@H](O)C2(F)F)c(=O)n1` [GEMCITABINE] was run?
A: 6.48

Q: What about the pIC50 (Calu-3) of the same molecule?
A: 7.76

Q: What about the pIC50 (D-542MG) of the same molecule?
A: < 5.99

Q: What about the pIC50 (DBTRG-05MG) of the same molecule?
A: 6.91

Q: What about the pIC50 (DMS-273) of the same molecule?
A: 8.51

Q: What about the pIC50 (Detroit 562) of the same molecule?
A: 7.98

Q: And the pIC50 (HCC1569)?
A: 6.96

Q: And the pIC50 (HCE-4)?
A: > 8.40

Q: And the pIC50 (HOS)?
A: > 8.40

Q: What about the pIC50 (HSC-2) of the same molecule?
A: 8.52

Q: And the pIC50 (HT-1376)?
A: 6.43

Q: What about the pIC50 (HT-3) of the same molecule?
A: 6.70

Q: And the pIC50 (KOSC-2)?
A: < 5.99

Q: What about the pIC50 (KU812 cell line) of the same molecule?
A: 8.72

Q: What about the pIC50 (LB996-RCC) of the same molecule?
A: 7.19

Q: What about the pIC50 (LNCaP-Clone-FGC) of the same molecule?
A: < 5.99

Q: And the pIC50 (LS-411N)?
A: 7.52

Q: And the pIC50 (LXF-289 cell line)?
A: 8.48

Q: And the pIC50 (MC116)?
A: 6.32

Q: And the pIC50 (ME-180)?
A: 7.41

Q: And the pIC50 (MHH-ES-1)?
A: > 8.40

Q: What about the pIC50 (MPP-89) of the same molecule?
A: 6.16

Q: And the pIC50 (MRK-nu-1)?
A: 8.59

Q: What about the pIC50 (MSTO-211H) of the same molecule?
A: < 5.99

Q: What about the pIC50 (MZ2-MEL) of the same molecule?
A: 7.58

Q: What about the pIC50 (NCI-H1581) of the same molecule?
A: < 5.99

Q: And the pIC50 (NCI-H2087)?
A: 8.67

Q: And the pIC50 (NCI-H226)?
A: 6.50

Q: And the pIC50 (NCI-H2342)?
A: 8.12

Q: What about the pIC50 (NCI-H716) of the same molecule?
A: < 5.99

Q: What about the pIC50 (NCI-H720) of the same molecule?
A: < 5.99

Q: And the pIC50 (OE19)?
A: 6.15

Q: What about the pIC50 (OS-RC-2) of the same molecule?
A: 8.18

Q: And the pIC50 (OVCAR-8)?
A: 8.10

Q: And the pIC50 (PANC-03-27)?
A: 8.45

Q: And the pIC50 (SJRH30)?
A: 6.97

Q: What about the pIC50 (SK-MEL-24) of the same molecule?
A: < 5.99

Q: And the pIC50 (SK-MEL3)?
A: 6.98

Q: What about the pIC50 (SK-N-DZ) of the same molecule?
A: 7.06

Q: What about the pIC50 (CWR22R) of the same molecule?
A: 7.02

Q: And the pIC50 (639-V)?
A: 6.71

Q: What about the pIC50 (A2780) of the same molecule?
A: > 8.40

Q: What about the pIC50 (A-375) of the same molecule?
A: > 8.40

Q: And the pIC50 (CAL-62)?
A: 8.92

Q: What about the pIC50 (THP-1) of the same molecule?
A: 6.18

Q: And the pIC50 (UMUC3)?
A: 7.79

Q: What about the pIC50 (VMRC-RCZ) of the same molecule?
A: 8.81
